Tests used:
[1] = relative permittivity at various frequencies (dimensionless); xn = mol fraction of the nth substance listed; settings: 99 kPa, Liquid, Frequency=2 MHz, Parallel plate capacitor
[2] = refractive index (Na D-line) (dimensionless); xn = mol fraction of the nth substance listed; settings: 99 kPa, Liquid, Abbe refractometer

CC(C)(C)Cl [2-chloro-2-methylpropane] + CCCCCC
Settings | refractive index, 283.15 K | refractive index, 298.15 K | refractive index, 313.15 K | relative permittivity, 283.15 K | relative permittivity, 298.15 K | relative permittivity, 313.15 K
[1], x2 = 0 | – | – | – | 10.429 | 9.67 | 8.952
[1], x2 = 0.0467 | – | – | – | 9.841 | 9.132 | 8.468
[1], x2 = 0.099 | – | – | – | 9.191 | 8.543 | 7.946
[1], x2 = 0.2084 | – | – | – | 7.892 | 7.37 | 6.883
[1], x2 = 0.2972 | – | – | – | 6.892 | 6.468 | 6.073
[1], x2 = 0.399 | – | – | – | 5.897 | 5.552 | 5.239
[1], x2 = 0.4982 | – | – | – | 5.016 | 4.749 | 4.514
[1], x2 = 0.6015 | – | – | – | 4.212 | 4.01 | 3.842
[1], x2 = 0.7009 | – | – | – | 3.543 | 3.398 | 3.283
[1], x2 = 0.8046 | – | – | – | 2.928 | 2.833 | 2.749
[1], x2 = 0.8999 | – | – | – | 2.417 | 2.362 | 2.308
[1], x2 = 0.9502 | – | – | – | 2.149 | 2.116 | 2.08
[2], x2 = 0 | 1.39115 | 1.38225 | 1.37312 | – | – | –
[2], x2 = 0.048 | 1.39005 | 1.38118 | 1.37209 | – | – | –
[2], x2 = 0.0978 | 1.38908 | 1.38022 | 1.37118 | – | – | –
[2], x2 = 0.1998 | 1.38741 | 1.3786 | 1.36961 | – | – | –
[2], x2 = 0.3018 | 1.38592 | 1.37722 | 1.36829 | – | – | –
[2], x2 = 0.405 | 1.38463 | 1.37598 | 1.36716 | – | – | –
[2], x2 = 0.5059 | 1.38354 | 1.37491 | 1.36616 | – | – | –
[2], x2 = 0.6043 | 1.38258 | 1.37407 | 1.3654 | – | – | –
[2], x2 = 0.7077 | 1.38181 | 1.37335 | 1.36477 | – | – | –
[2], x2 = 0.806 | 1.38122 | 1.37282 | 1.36433 | – | – | –
[2], x2 = 0.9095 | 1.38081 | 1.37249 | 1.36409 | – | – | –
[2], x2 = 0.95 | 1.38066 | 1.37236 | 1.36401 | – | – | –

CC(C)(C)Cl [2-chloro-2-methylpropane] + CCCCCCC
Settings | refractive index, 283.15 K | refractive index, 298.15 K | refractive index, 313.15 K | relative permittivity, 283.15 K | relative permittivity, 298.15 K | relative permittivity, 313.15 K
[1], x2 = 0 | – | – | – | 10.429 | 9.67 | 8.952
[1], x2 = 0.0506 | – | – | – | 9.787 | 9.1 | 8.449
[1], x2 = 0.1035 | – | – | – | 9.109 | 8.485 | 7.907
[1], x2 = 0.2006 | – | – | – | 7.895 | 7.373 | 6.892
[1], x2 = 0.3012 | – | – | – | 6.721 | 6.293 | 5.932
[1], x2 = 0.3976 | – | – | – | 5.754 | 5.41 | 5.118
[1], x2 = 0.504 | – | – | – | 4.827 | 4.566 | 4.34
[1], x2 = 0.6015 | – | – | – | 4.103 | 3.914 | 3.747
[1], x2 = 0.6988 | – | – | – | 3.472 | 3.341 | 3.226
[1], x2 = 0.8014 | – | – | – | 2.905 | 2.819 | 2.749
[1], x2 = 0.9027 | – | – | – | 2.407 | 2.359 | 2.322
[1], x2 = 0.9444 | – | – | – | 2.209 | 2.173 | 2.144
[2], x2 = 0 | 1.39115 | 1.38225 | 1.37312 | – | – | –
[2], x2 = 0.0511 | 1.39054 | 1.38172 | 1.37267 | – | – | –
[2], x2 = 0.0962 | 1.39025 | 1.38149 | 1.37249 | – | – | –
[2], x2 = 0.1985 | 1.38996 | 1.3813 | 1.37238 | – | – | –
[2], x2 = 0.2955 | 1.38988 | 1.38132 | 1.37254 | – | – | –
[2], x2 = 0.3985 | 1.39001 | 1.38159 | 1.37294 | – | – | –
[2], x2 = 0.4985 | 1.39024 | 1.38196 | 1.37347 | – | – | –
[2], x2 = 0.5996 | 1.39059 | 1.38244 | 1.37414 | – | – | –
[2], x2 = 0.7039 | 1.39105 | 1.38306 | 1.37492 | – | – | –
[2], x2 = 0.8032 | 1.39164 | 1.38375 | 1.37573 | – | – | –
[2], x2 = 0.9039 | 1.39225 | 1.38447 | 1.37653 | – | – | –
[2], x2 = 0.9618 | 1.39267 | 1.38492 | 1.37703 | – | – | –

Reference: the NIST ThermoML archive (doi:10.1016/j.jct.2015.03.001)
